# Laboratory results published in PubChem BioAssay (NCI).
# Values joined by “and” are separate entries in the source; they are usually repeats but may differ in a detail not shown here. Equal entries are not always repeated.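 Step 1: Grow cells in 96-well plates. Step 2: Expose to compound for 48 hours at 5 concentrations. Step 3: Interpolate endpoints linearly; if unreached, use highest concentration. GI50 is the concentration that inhibits growth by half. TGI: concentration producing complete growth inhibition.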
# Key:
# Experiment in all cases: inhibition of tumour cell growth, NCI panel, 48 h
# HOP-92 NSCLC = test system: HOP-92 NSCLC
# SF-295 CNS = test system: SF-295 CNS
# SK-MEL-5 melanoma = test system: SK-MEL-5 melanoma
# OVCAR-5 ovarian = test system: OVCAR-5 ovarian
# MALME-3M melanoma = test system: MALME-3M melanoma
# 786-0 renal = test system: 786-0 renal
# ACHN renal = test system: ACHN renal
# EKVX NSCLC = test system: EKVX NSCLC
# NCI-H23 lung = test system: NCI-H23 lung
# OVCAR-3 ovarian = test system: OVCAR-3 ovarian
Compound,GI50 (HOP-92 NSCLC),TGI (HOP-92 NSCLC),GI50 (SF-295 CNS),TGI (SF-295 CNS),GI50 (SK-MEL-5 melanoma),TGI (SK-MEL-5 melanoma),GI50 (OVCAR-5 ovarian),TGI (OVCAR-5 ovarian),GI50 (MALME-3M melanoma),TGI (MALME-3M melanoma),GI50 (786-0 renal),TGI (786-0 renal),GI50 (ACHN renal),TGI (ACHN renal),GI50 (EKVX NSCLC),TGI (EKVX NSCLC),GI50 (NCI-H23 lung),TGI (NCI-H23 lung),GI50 (OVCAR-3 ovarian),TGI (OVCAR-3 ovarian)
COc1cc(OC)cc(C2CC(=O)Nc3c2c(C)nn3-c2nc3ccccc3[nH]2)c1 (stereo not drawn),2.59 µM,6.63 µM,1.58 µM,3.85 µM,1.97 µM,4.27 µM,4.15 µM,> 100 µM,3.66 µM,> 100 µM,2.84 µM,9.89 µM,3.94 µM,42.4 µM,3.31 µM,> 100 µM,2.79 µM,7.73 µM,2.3 µM,5.02 µM
C=C1C(=O)O[C@H]2[C@H]1CC/C(CNC(=O)c1cc3cc(OC)ccc3[nH]1)=C\CC[C@@]1(C)O[C@@H]21,1.56 µM,3.35 µM,4.89 µM,18.7 µM,2.01 µM,4.85 µM,2.19 µM,7.35 µM,1.62 µM,3.98 µM,1.51 µM,3.2 µM,1.24 µM,2.84 µM,1.28 µM,3 µM,1.77 µM,4.38 µM,1.21 µM,2.57 µM
ClCc1cccc(Cn2cnc3c(NC45CC6CC(CC(C6)C4)C5)ncnc32)c1,17.3 µM,34.5 µM,15.9 µM,33.3 µM,16.4 µM,31.7 µM,19.2 µM,36.4 µM,14.6 µM,32.4 µM,3.43 µM,25.8 µM,15.4 µM,30.5 µM,18.6 µM,40.7 µM,19.6 µM,46.4 µM,17.6 µM,35.9 µM
O=c1c2c(nc3n1CCS3)[nH]c1ccccc12,> 100 µM,> 100 µM,> 100 µM,> 100 µM,2.75 µM,> 100 µM,> 100 µM,> 100 µM,> 100 µM,> 100 µM,> 100 µM,> 100 µM,> 100 µM,> 100 µM,> 100 µM,> 100 µM,> 100 µM,> 100 µM,95.4 µM,> 100 µM
CC(=O)OCC1OC(N2C(=O)C(=O)c3cc(C)ccc32)C(OC(C)=O)C(OC(C)=O)C1OC(C)=O (stereo not drawn),,> 100 µM,,> 100 µM,,> 100 µM,,> 100 µM,,> 100 µM,,> 100 µM,,> 100 µM,,> 100 µM,,> 100 µM,,> 100 µM
CCOC(=O)c1cc(C#N)c(=O)n(/N=C(\C)c2ccncc2)c1O,> 100 µM,> 100 µM,> 100 µM,> 100 µM,> 100 µM,> 100 µM,> 100 µM,> 100 µM,> 100 µM,> 100 µM,> 100 µM,> 100 µM,> 100 µM,> 100 µM,> 100 µM,> 100 µM,> 100 µM,> 100 µM,> 100 µM,> 100 µM
O=S(=O)(N/N=C/c1ccc(/C=N/NS(=O)(=O)c2ccccc2)cc1)c1ccccc1,,64.8 µM,,45.6 µM,,> 100 µM,,51 µM,,> 100 µM,,> 100 µM,,> 100 µM,,> 100 µM,,66.8 µM,,> 100 µM
CC1=C(C(=O)Nc2ccccc2C)C(c2ccc(Cl)c(Cl)c2)C(C(=O)Nc2ccccc2C)=C(C)N1,,33.4 µM,,43.2 µM,,31.8 µM,,53.5 µM,,52.3 µM,,67.3 µM,,> 100 µM,,> 100 µM,,56.7 µM,,49.8 µM
CCCCCCCCC[C@@H]1CC(=O)OCC2OC(O[C@H](CCCCCCCCC)CC(=O)OCC3OC(O[C@H](CCCCCCCCC)CC(=O)OCC4OC(O1)C(O)C(O)C4O)C(O)C(O)C3O)C(O)C(O)C2O (stereo partly drawn),,22.6 µM,,27.1 µM,,25.5 µM,,22.5 µM,,22.3 µM,,16.2 µM,,26.1 µM,,25.1 µM,,30.6 µM,,32.1 µM
COc1ccc(/C=N\NC(=O)CN2CCN(c3cc4c(cc3F)c(=O)c(C(=O)N/N=C/c3ccc(OC)c(OC)c3)cn4C3CC3)CC2)cc1OC,2.25 µM,6.9 µM,17.9 µM,63 µM,3.69 µM,15.8 µM,2.39 µM,6.94 µM,1.81 µM,3.62 µM,4.83 µM,22.6 µM,> 100 µM,> 100 µM,6.06 µM,> 100 µM,3.1 µM,10.8 µM,2.65 µM,7.26 µM
CCN(CC)CC(O)CNc1ccc(NCC2CO2)c2c1C(=O)c1ccccc1C2=O (stereo not drawn),,6.39 µM,,4.6 µM,0.398 µM,1.8 µM,,7.76 µM,,5.44 µM,0.374 µM,1.15 µM,0.0514 µM,0.448 µM and 0.751 µM,,4.72 µM,0.26 µM,5.2 µM,0.299 µM,2.69 µM
COc1cc(C(=O)/C(C)=C/c2c[nH]c3ccccc23)cc(OC)c1OC,0.074 µM,2.33 µM,0.00298 µM,1.61 µM,0.00428 µM,0.0205 µM,0.0842 µM,> 100 µM,14.2 µM,> 100 µM,0.00639 µM,> 100 µM,0.00619 µM,> 100 µM,0.0053 µM,> 100 µM,0.00516 µM,> 100 µM,0.00334 µM,0.0107 µM
CCN1CCN(C(=O)[C@]23CC[C@@H](C)[C@H](C)[C@@H]2C2=CC[C@@H]4[C@@]5(C)C/C(=C/c6ccncc6)C(=O)C(C)(C)[C@@H]5CC[C@@]4(C)[C@]2(C)CC3)CC1,1.14 µM,2.51 µM,1.55 µM,2.88 µM,1.75 µM,3.14 µM,1.46 µM,2.77 µM,1.5 µM,2.83 µM,1.73 µM,3.43 µM,1.73 µM,3.1 µM,1.47 µM,3.41 µM,1.75 µM,3.41 µM,1.56 µM,2.94 µM
O=S(=O)(NC1=NCCN1C(=S)SN1CCn2c1nsc2=S)c1ccc(Br)cc1,0.0273 µM,36.7 µM,46.2 µM,> 100 µM,19.5 µM,47.9 µM,> 100 µM,> 100 µM,11.7 µM,56.3 µM,31 µM,> 100 µM,22.2 µM,73.6 µM,2.39 µM,95.1 µM,53.2 µM,> 100 µM,23.8 µM,> 100 µM
O=C1c2ccccc2-c2cccc3ccc(Cc4ccc5ccccc5c4)c1c23,,> 100 µM,,> 100 µM,,> 100 µM,,> 100 µM,,> 100 µM,,> 100 µM,,> 100 µM,,> 100 µM,,> 100 µM,,> 100 µM
O=c1c2cc(Cl)ccc2oc2ccc(OCCCCCN3CCCCC3)cc12,3.55 µM,10.3 µM,6.62 µM,13.5 µM,0.892 µM,1.91 µM,5.17 µM,11.2 µM,6.86 µM,14.1 µM,5.91 µM,12.5 µM,5.28 µM,11.2 µM,6.25 µM,13.2 µM,5.37 µM,12 µM,5.47 µM,11.5 µM
O=C1c2ccccc2C(=O)N1CCCSc1ccccc1,,> 100 µM,,> 100 µM,,> 100 µM,,> 100 µM,,> 100 µM,,> 100 µM,,> 100 µM,,> 100 µM,,> 100 µM,,> 100 µM
CC[C@@H]1OC2(C)CC(S(=O)(=O)c3ccccc3O)CC1O2 (stereo partly drawn),,> 100 µM,,> 100 µM,,> 100 µM,,> 100 µM,,> 100 µM,,> 100 µM,,> 100 µM,,> 100 µM,,> 100 µM,,> 100 µM
O=c1ccn(C2OC(CO)C(O)C2F)c(=O)[nH]1 (stereo not drawn),> 1000 µM,> 1000 µM,> 1000 µM,> 1000 µM,> 1000 µM,> 1000 µM,> 1000 µM,> 1000 µM,> 1000 µM,> 1000 µM,> 1000 µM,> 1000 µM,> 1000 µM,> 1000 µM,> 1000 µM,> 1000 µM,> 1000 µM,> 1000 µM,> 1000 µM,> 1000 µM
CO[C@@H]1/C=C\C=C(/C)C(=O)NC2=CC(=O)C(NCCN(C)C)=C(C[C@@H](C)C[C@@H](OC)[C@@H](O)[C@H](C)/C=C(\C)[C@H]1OC(N)=O)C2=O,0.966 µM and 0.175 µM,11.7 µM and 2.1 µM,0.0278 µM,17.2 µM and 11.7 µM,< 0.01 µM and 0.0238 µM,3.12 µM and 1.12 µM,0.406 µM and 0.11 µM,9.23 µM and 7.52 µM,,3.73 µM and 0.562 µM,0.0589 µM,15 µM and 26.9 µM,< 0.0167 µM and 0.0737 µM,,0.641 µM and 0.145 µM,11.1 µM and 7.59 µM,< 0.0125 µM,7.14 µM,0.068 µM and 0.0369 µM,6.26 µM and 2.39 µM
C=CC1(C(=O)O)CCC(C(C)(C)C)CC1 (stereo not drawn),,> 100 µM,,> 100 µM,,> 100 µM,,> 100 µM,,> 100 µM,,> 100 µM,,> 100 µM,,> 100 µM,,> 100 µM,,> 100 µM
COc1ccc(CN(C)c2ccc(CO)c(Cl)c2)cc1,4.7 µM,45.3 µM,3.35 µM,> 100 µM,8.24 µM,21.9 µM,0.439 µM,2.9 µM,21 µM,65.6 µM,13.7 µM,> 66.4 µM,32.6 µM,> 100 µM,22 µM,> 91.6 µM,12.9 µM,> 100 µM,2.93 µM,12.8 µM
CC(C)CS(=O)(=O)/C(=C(\c1ccc(Br)cc1)S(=O)(=O)CC(C)C)c1ccc(Br)cc1,,> 100 µM,,> 100 µM,,2.8 µM,,> 100 µM,,> 100 µM,,> 100 µM,,> 100 µM,,> 100 µM,,> 100 µM,,> 100 µM
CC1=C2[C@@H](CC1)[C@]1(C)O[C@@](C3CCCCC3)(C[C@H]1OC(=O)CO)[C@H]2OC(=O)/C=C/c1ccccc1,3.68 µM,12.2 µM,6.45 µM,19 µM,12 µM,24.9 µM,15.2 µM,37.1 µM,12 µM,28 µM,1.48 µM,17.6 µM,0.0331 µM,4.25 µM,5.83 µM,19.5 µM,8.65 µM,26.1 µM,6.92 µM,18.7 µM
NNC(=O)/C(=C/c1ccc(Cl)c(Cl)c1)NC(=O)c1ccccc1,,> 100 µM,,> 100 µM,,> 100 µM,,> 100 µM,,> 100 µM,,> 100 µM,,> 100 µM,,> 100 µM,,> 100 µM,,> 100 µM
Cc1nc2sc(C(=O)Nc3cccc(Cl)c3C)c(N)c2cc1C(=O)/C=C/c1ccccc1,0.371 µM,2.11 µM,0.446 µM,2.1 µM,0.572 µM,1.43 µM,0.714 µM,1.74 µM,0.315 µM,4.47 µM,0.232 µM,0.907 µM,0.327 µM,1.09 µM,1.12 µM,5.69 µM,0.755 µM,2.44 µM,0.199 µM,0.737 µM
CC1C[C@@]2(c3ccccc3)C(=O)CCC[C@H]2N1 (stereo partly drawn),,> 100 µM,,> 100 µM,,> 100 µM,,> 100 µM,,> 100 µM,,> 100 µM,,> 100 µM,,> 100 µM,,> 100 µM,,> 100 µM
CC(=O)c1c(C)[nH]c(-c2nc3ccc(N4CCN(C)CC4)cc3[nH]2)c1-c1ccc(OCC2CCOCC2)cc1,0.11 µM,2.79 µM,2.67 µM,15.3 µM,0.966 µM,3.17 µM,1.62 µM,32.2 µM,0.72 µM,2.57 µM,1.31 µM,14.5 µM,0.777 µM,12.4 µM,8.36 µM,37.2 µM,1.32 µM,18.3 µM,0.889 µM,14 µM
